Measured values as given in patent publication US7071206B2, “Agents for treating neurodegenerative disorders” (Medivation, Inc., priority 1995, dated 2006).

Key:
NMDA receptor [1] = assay: Anti-NMDA activity: prevention of convulsions and death caused by NMDA injected into the lateral ventricle of the brain; format: in vivo; conditions: mice, i.p. 40 minutes before NMDA 0.1 μg into the lateral ventricle, probit analysis
Experimental: The experiment was conducted in white non-inbred male mice of 20–24 g of weight. A solution of the test agent in 0.2 ml of 5% aqueous dimethylsulfoxide was injected intraperitoneally 40 minutes before the injection of NMDA into the lateral vehicle of the brain. For the mice that had been prepared beforehand for the experiment a skin flap on the head of each mouse was removed under ether anestesia and a hole was bored in the skull by a fine drill. NMDA (0.1 μg) in a volume of 1.4 μl was injected with a microsyringe. The microsyringe needle was immersed to a depth of 2.5 mm. After the operation, the wound was treated with a 2% novocaine solution. […] The accuracy of NMDA injection was monitored by injection of methylene blue. Two to 4 hours after the operation, the mice were used for a pharmacological experiment.
The animals inoculated with a saline solution were used as control.
Each dose of the agent was tested in a croup of 6–8 animals. The ED50 value (the dose of the agent preventing the development of convulsions and the death of 50% of the animals) was determined by a probit-analysis method (Litchfild J. T., Wicoxon F. J.—Pharmacol. Exp. Therap., 1949, v. 96, p. 99–114).

NMDA receptor [2] = conditions: cited from earlier work

CN1CCc2[nH]c3ccccc3c2C1 [No. 1, 2-methyl-2,3,4,5-tetrahydro-1H-pyrido[4,3-b]indole]
ED50 (dose preventing the development of convulsions and the death of 50% of the animals) (NMDA receptor [1]): 30 ± 4 mg/kg

Cl.Nc1c2c(nc3ccccc13)CCCC2 [Tacrine, 9-amino-1,2,3,4-tetrahydroacridine hydrochloride, reference compound]
ED50 (dose preventing the development of convulsions and the death of 50% of the animals) (NMDA receptor [1]): not active

Cc1ccc2[nH]c3c(c2c1)CN(C)CC3 [No. 3, 2,8-dimethyl-2,3,4,5-tetrahydro-1H-pyrido[4,3-b]indole]
ED50 (dose preventing the development of convulsions and the death of 50% of the animals) (NMDA receptor [1]; listed as 3): ~40 mg/kg

CCN1CCc2[nH]c3ccccc3c2C1 [No. 6, 2-ethyl-2,3,4,5-tetrahydro-1H-pyrido[4,3-b]indole]
ED50 (dose preventing the development of convulsions and the death of 50% of the animals) (NMDA receptor [1]): 45 ± 6 mg/kg

Cc1ccc(CCn2c3c(c4ccccc42)CN(C)CC3)cn1 [No. 9, 2-methyl-5-[2-(6-methyl-3-pyridyl)ethyl]-2,3,4,5-tetrahydro-1H-pyrido[4,3-b]indole]
ED50 (dose preventing the development of convulsions and the death of 50% of the animals) (NMDA receptor [1]): 22 ± 4 mg/kg

Cc1ccc2[nH]c3c(c2c1)CN(C)CC3 [No. 2, 2,8-dimethyl-2,3,4,5-tetrahydro-1H-pyrido[4,3-b]indole]
ED50 (dose preventing the development of convulsions and the death of 50% of the animals) (NMDA receptor [1]; listed as 2): 16 ± 4 mg/kg

c1ccc(CN2CCc3[nH]c4ccccc4c3C2)cc1 [No. 7, 2-benzyl-2,3,4,5-tetrahydro-1H-pyrido[4,3-b]indole]
ED50 (dose preventing the development of convulsions and the death of 50% of the animals) (NMDA receptor [1]): 43 ± 5 mg/kg

NC(CCCP(=O)(O)O)C(=O)O (stereo not drawn) [AP-5, 2-amino-5-phosphonovaleric acid]
side neurotoxic effect (disturbance of coordination of movement, sedative effect) (NMDA receptor [2]; in the doses that produce the anti-NMDA effect): side neurotoxic effect | ED50, anti-NMDA effect (NMDA receptor [2]; literature value): 190 mg/kg | ED50 (dose preventing the development of convulsions and the death of 50% of the animals) (NMDA receptor [1]): 190 ± 20 mg/kg

Cc1ccc2c(c1)c1c(n2Cc2ccccc2)CCN(C)C1 [No. 8, 2,8-dimethyl-5-benzyl-2,3,4,5-tetrahydro-1H-pyrido[4,3-b]indole]
ED50 (dose preventing the development of convulsions and the death of 50% of the animals) (NMDA receptor [1]): 45 ± 5 mg/kg

CN1CCc2[nH]c3ccc(Br)cc3c2C1 [No. 5, 2-methyl-8-bromo-2,3,4,5-tetrahydro-1H-pyrido[4,3-b]indole]
ED50 (dose preventing the development of convulsions and the death of 50% of the animals) (NMDA receptor [1]): 29 ± 5 mg/kg
